Key:
[1] = tested on: esophagus tissues (non-erosive esophageal damage induced by TCA and DCA); assay: Effect on non-erosive esophageal damage: tissue conductance of esophagus in Ussing chamber after TCA+DCA treatment; format: in vivo, C57Bl/6J mice; conditions: mice given 4 mM TCA and 2 mM DCA in drinking water for 6 days, Compound A in drinking water for the same period; versus TCA+DCA control; FIG. 1
Protocol: Effect on non-erosive esophageal damage Male or female C57Bl/6J mice were allowed free access to drinking tap water containing 4 mM taurocholic acid (TCA) and 2 mM deoxycholic acid (DCA) for 6 days. On the day after treatment with TCA and DCA, the mice were sacrificed and their esophagus was removed. The esophagus tissues were divided into two parts and distal parts were used for the study. Each tissue was mounted in the Ussing chamber and short-circuit currents were measured. Compound A ((−)-7-{(2R,4aR,5R,7aR)-2-[(3S)-1,1-difluoro-3-methylpentyl]-2-hydroxy-6-oxooctahydrocyclopenta[b]pyran-5-yl}heptanoic acid) was administered to mice in drinking water for the same period of TCA+DCA treatment. Tissue conductance calculated based on the short-circuit current data was used as an index of tissue damage.

[2] = tested on: mouse esophageal tissues (epithelial layer); assay: HE staining of mouse esophageal tissues; format: in vivo; conditions: 6 days of treatment, Compound A with TCA/DCA; FIG. 2
Source text: The mouse esophageal tissues were isolated after 6 days of treatment with control vehicle or drugs (DMSO, TCA/DCA, or Compound A with TCA/DCA). The tissues were separated into two parts, and their lower parts were used for preparation of RT-PCR samples as well as for electrophysiological examination and HE staining. The samples for HE staining were fixed with 10% neutral buffered formalin solution for 12 hrs, after which they were dehydrated and fixed in paraffin. The samples were sliced into 7 μm thick slices in a microtome, and then placed on slide glasses at 43° C. for lhr and then at 55° C. overnight. Following this, tissues were stained with Hematoxylin and Eosin staining solution. The samples were evaluated in a suitable microscope (Olympus EX-43).

[3] = tested on: claudin-2; assay: Quantitative real-time RT-PCR, claudin-2 expression in mouse esophagus tissue; format: in vivo; conditions: 6 days, TCA/DCA with 50 μM Compound A in drinking water, n=3; FIG. 3
Protocol: (§1) mRNA was prepared from mouse esophagus tissue after 6 days of treatment with vehicle or active agents (Group1:DMSO control, Group2:TCA/DCA positive control, and Group3:TCA/DCTA with 50 μM Compound A in drinking water, n=3 in each group) and reversely transcribed to cDNA by reverse transcriptase (Superscript III, Invitrogen).
(§2) Expression levels of claudin-2 which is expressed in cation-leaky epithelia, and claudin-4 which is a component of tight junction strands (PNAS 107(17), 8011-8016, 2010; Development Biology 312, 509-522, 2007; and Seminars in Cell & Developmental Biology 36 166-176, 2014), were normalized to GAPDH expression by calculating the A Ct=(Ct of GAPDH−Ct of gene). Setting the expression value of GAPDH to 1.0, the relative expression values were then calculated as 2̂ΔCt.

[4] = tested on: claudin-4; assay: Quantitative real-time RT-PCR, claudin-4 expression in mouse esophagus tissue; format: in vivo; conditions: 6 days, TCA/DCA with 50 μM Compound A in drinking water, n=3; FIG. 4
Protocol: as §1, §2

CC[C@H](C)CC(F)(F)[C@@]1(O)CC[C@H]2[C@@H](CC(=O)[C@@H]2CCCCCCC(=O)O)O1 [Compound A, (−)-7-{(2R,4aR,5R,7aR)-2-[(3S)-1,1-difluoro-3-methylpentyl]-2-hydroxy-6-oxooctahydrocyclopenta[b]pyran-5-yl}heptanoic acid]
Tissue conductance (index of tissue damage) [1]: reduced from that found in control animals | Tissue structure (HE staining), damage of epithelial layer by bile acids [2]: restores or protects against damage by bile acids histologically | Expression level of claudin-2 (normalized to GAPDH) [3]: downregulated | Expression level of claudin-4 (normalized to GAPDH) [4]: upregulated
